Reference: US11339185B2, “Cyclic dinucleotides as anticancer agents” (Bristol-Myers Squibb Company, priority 2018, dated 2022)
Read-outs that look alike come from different tables or passages of the source.

Experiments:
[1] = tested on: THP1-Dual cells, IRF pathway (IRF3); assay: STING THP1 Reporter Assay, IRF pathway (secreted Lucia luciferase, QUANTI-Luc); format: cell-based; details: 10% human plasma, luciferase readout, 100% activation = 100 μM cGAMP, read-out: THP1 Reporter Assays EC50 (μM) IRF3
Description: (§1) THP1-Dual™ cells were derived from the human THP-1 monocyte cell line by stable integration of two inducible reporter constructs. To this end, THP1-Dual™ cells allow the simultaneous study of the NF-κB pathway, by monitoring the activity of SEAP, and the IRF pathway by assessing the activity of a secreted luciferase (Lucia). Both reporter proteins are readily measurable in the cell culture supernatant when using QUANTI-Blue™, a SEAP detection reagent, and QUANTI-Luc™, a luciferase detection reagent.
(§2) THP1-Dual™ cells induce the activation of NF-κB in response to STING agonists. They also trigger the IRF pathway upon stimulation with STING agonists, such as cGAMP. Here, the THP-1-Dual cells were used to assess STING binders for function on the cellular level.
(§3) Serial dilutions of compounds in DMSO were added to low volume 384 well plates at 100 nl/well using an ECHO acoustic dispenser (Labcyte, model 550) to achieve final starting concentration of 100 μM in cell suspension. THP-1 Dual™ STING reporter cells (Invivogen, Dual cells cat #THPD-nfis) were added to the plates with compounds at 15,000 cells in 10 μL per well in RPMI media (Gibco, cat #11875) containing 10% human plasma in a low volume 384-well black wall clear bottom tissue culture plate (Corning, cat #3542) for SEAP assay and low volume solid white plate (Corning, cat #3826) for luciferase assay. One column of the plate was reserved for treatment with cGAMP at 100 μM for 100% activation calculation and one column for no treatment (DMSO only) for baseline activation. Plates were then incubated in 37 OC incubator at 5% CO2 for 20 hours.
(§4) In the SEAP assay, 5 μl of 2× QuantiBlue (Invivogen, cat #Rep-qb2) is added to 384 well black plates seeded with THP1 cells and incubated at 37° C. for 2 hours. Plates were read on the Envision (Perkin Elmer) at 620 nm wavelength (OD620). In the luciferase assay, 5 μl of Quantiluc (Invivogen, Rep-qlc2) is added to white 384 well plates seeded with THP1 cells and read at 5 minutes on the Envision (Perkin Elmer) using a luminescence protocol (RLU). For both cell lines, 100% activation was determined by value (RLU) of THP-1 Dual STING cells stimulated with 100 μM cGAMP (Invivogen, cat #TLRL-NACGA23-5).

[2] = target: T1, STING WT: His-TVMV-S-hSTING(155-341)-H232R (Homo sapiens, UniProt Q86WV6, H232R); assay: STING HTRF binding assay (time resolved FRET competition), STING WT; details: 20 nM His-tagged STING WT cytoplasmic domain, 200 nM fluorescein-labeled cGAMP analog probe, one hour; read-out: HTRF Binding Assays IC50 (μM) WT
T1 construct: STING WT: His-TVMV-S-hSTING(155-341)-H232R
Procedure: (§5) A time resolved FRET-based competition binding assay was used to assess test article binding to STING WT and STING AQ. His-tagged STING cytoplasmic domain (WT or AQ) at a concentration of 20 nM was incubated with 2.5 nM Tb-labeled anti-His antibody, test compound, and fluorescein-labeled cGAMP analog probe (BioLog cat. no. C195) at a concentration of 200 nM (STING WT) or 40 nM (STING AQ) in PBS containing 0.005% Tween-20 and 0.1% BSA for one hour. Fluorescence at 495 nm and 520 nm was measured using an EnVision microplate reader to quantify FRET between Tb-labeled anti-His antibody and fluorescein-labeled probe. Background was defined as the signal obtained in the absence of STING protein, and background subtracted FRET ratios were normalized to the maximum signal obtained in the absence of test compound. These values were converted to a percent inhibition. Percent inhibition was determined for test compounds at 11 concentrations. The IC50, defined as the concentration of competing test compound needed to reduce specific binding of the probe by 50%, was calculated using the 4 parameter logistic equation to fit the data

[3] = tested on: THP1-Dual cells, NF-κB pathway; assay: STING THP1 Reporter Assay, NF-κB pathway (SEAP, QUANTI-Blue); format: cell-based; details: 10% human plasma, SEAP readout (OD620), 100% activation = 100 μM cGAMP, read-out: THP1 Reporter Assays EC50 (μM) NFkB
Description: as §1, §2, §3, §4

[4] = target: T2, STING AQ: His-TVMV-S-hSTING(155-341)-G230A-R293Q (Homo sapiens, UniProt Q86WV6, G230A/H232R/R293Q); assay: STING HTRF binding assay (time resolved FRET competition), STING AQ; details: 20 nM His-tagged STING AQ cytoplasmic domain, 40 nM fluorescein-labeled cGAMP analog probe, one hour; read-out: HTRF Binding Assays IC50 (μM) AQ
T2 construct: STING AQ: His-TVMV-S-hSTING(155-341)-G230A-R293Q
Procedure: as §5

T2 sequence (Q86WV6 with tags, fused parts or gaps G230A/H232R/R293Q): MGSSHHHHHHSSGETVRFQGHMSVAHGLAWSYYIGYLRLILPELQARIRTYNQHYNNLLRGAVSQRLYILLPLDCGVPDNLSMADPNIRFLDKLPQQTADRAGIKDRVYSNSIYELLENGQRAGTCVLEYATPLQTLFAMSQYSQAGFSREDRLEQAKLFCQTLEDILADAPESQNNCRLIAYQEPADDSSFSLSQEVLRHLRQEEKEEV
T1 sequence (Q86WV6 with tags, fused parts or gaps H232R): as the sequence (Q86WV6 with tags, fused parts or gaps G230A/H232R/R293Q) above, with A99G, Q162R counted along it

Nc1ncnc2c1ncn2[C@@H]1O[C@@H]2COP(=O)(S)OC[C@@H]3[C@@H](COP(=O)(S)O[C@H]2[C@H]1F)C[C@H]3n1cnc2c(O)n3ccnc3nc21 (single isomer, unassigned) [Example 1-1]
EC50 ([1]; 20 hours): 41 µM
IC50 [2]: 0.19 µM
EC50 ([3]; 20 hours): 54.6 µM
IC50 [4]: 0.01 µM

Nc1ncnc2c1ncn2[C@@H]1O[C@@H]2COP(=O)(S)OC[C@@H]3[C@@H](COP(=O)(S)O[C@H]2[C@H]1F)C[C@H]3n1cnc2c(O)n3ccnc3nc21 (single isomer, unassigned) [Example 1-2]
EC50 ([1]; 20 hours): 31.3 µM
IC50 [2]: 0.9 µM
EC50 ([3]; 20 hours): 54 µM
IC50 [4]: 0.04 µM

Nc1ncnc2c1ncn2[C@@H]1O[C@@H]2COP(=O)(S)OC[C@@H]3[C@@H](COP(=O)(S)O[C@H]2[C@H]1F)C[C@H]3n1cnc2c(O)n3ccnc3nc21 (single isomer, unassigned) [Example 1-3]
EC50 ([1]; 20 hours): > 100 µM
IC50 [2]: 0.84 µM
EC50 ([3]; 20 hours): > 100 µM
IC50 [4]: 0.02 µM

Nc1ncnc2c1ncn2[C@@H]1O[C@@H]2COP(=O)(S)OC[C@@H]3[C@@H](COP(=O)(S)O[C@H]2[C@H]1F)C[C@H]3n1cnc2c(O)n3ccnc3nc21 (single isomer, unassigned) [Example 1-4]
EC50 ([1]; 20 hours): 0.39 µM
IC50 [2]: 0.01 µM
EC50 ([3]; 20 hours): 1.21 µM
IC50 [4]: 0.002 µM

Nc1ncnc2c1ncn2[C@@H]1C[C@@H]2COP(=O)(S)O[C@@H]3[C@H](O)[C@@H](COP(=O)(S)OC[C@H]21)O[C@H]3n1cnc2c(=O)n3ccnc3[nH]c21 (single isomer, unassigned) [Example 2-1]
EC50 ([1]; Homo sapiens, THP1-Dual, 20 h): 3.07 µM
IC50 [2]: 0.06 µM
EC50 ([3]; Homo sapiens, THP1-Dual, 20 h): 7.15 µM
IC50 [4]: 0.002 µM

Nc1ncnc2c1ncn2[C@@H]1O[C@@H]2COP(=O)(S)OC[C@@H]3[C@@H](COP(=O)(S)O[C@H]2[C@H]1F)C[C@H]3n1cnc2c1ncn1ccnc21 (single isomer, unassigned) [Example 3-1]
EC50 ([1]; 20 hours): 93.1 µM
IC50 [2]: 1.38 µM
EC50 ([3]; 20 hours): > 100 µM
IC50 [4]: 0.09 µM

Nc1ncnc2c1ncn2[C@@H]1O[C@@H]2COP(=O)(S)OC[C@@H]3[C@@H](COP(=O)(S)O[C@H]2[C@H]1F)C[C@H]3n1cnc2c1ncn1ccnc21 (single isomer, unassigned) [Example 3-2]
EC50 ([1]; 20 hours): 26.6 µM
IC50 [2]: 1.49 µM
EC50 ([3]; 20 hours): 42.6 µM
IC50 [4]: 0.03 µM

Nc1ncnc2c1ncn2[C@@H]1C[C@@H]2COP(=O)(O)O[C@@H]3[C@H](O)[C@@H](COP(=O)(S)OC[C@H]21)O[C@H]3n1cnc2c(=O)n3ccnc3[nH]c21 (single isomer, unassigned) [Example 4-1]
EC50 ([1]; Homo sapiens, THP1-Dual, 20 h): > 100 µM
IC50 [2]: 11.1 µM
EC50 ([3]; Homo sapiens, THP1-Dual, 20 h): > 100 µM
IC50 [4]: 0.1 µM

Nc1ncnc2c1ncn2[C@@H]1C[C@@H]2COP(=O)(S)O[C@H]3[C@@H](O)[C@H](n4cnc5c(=O)n6cc[nH]c6nc54)O[C@@H]3COP(=O)(S)OC[C@H]21 (single isomer, unassigned) [Example 5-1]
EC50 ([1]; Homo sapiens, THP1-Dual, 20 h): > 100 µM
IC50 [2]: > 100 µM
EC50 ([3]; Homo sapiens, THP1-Dual, 20 h): > 100 µM
IC50 [4]: > 100 µM

Nc1ncnc2c1ncn2[C@@H]1C[C@@H]2COP(=O)(S)O[C@H]3[C@@H](O)[C@H](n4cnc5c(=O)n6cc[nH]c6nc54)O[C@@H]3COP(=O)(S)OC[C@H]21 (single isomer, unassigned) [Example 5-2]
EC50 ([1]; 20 hours): > 100 µM
IC50 [2]: > 100 µM
EC50 ([3]; 20 hours): > 100 µM
IC50 [4]: 11.8 µM

Nc1ncnc2c1ncn2[C@@H]1C[C@@H]2COP(=O)(S)O[C@H]3[C@@H](O)[C@H](n4cnc5c(=O)n6cc[nH]c6nc54)O[C@@H]3COP(=O)(S)OC[C@H]21 (single isomer, unassigned) [Example 5-3]
EC50 ([1]; 20 hours): > 100 µM
IC50 [2]: > 100 µM
EC50 ([3]; 20 hours): > 100 µM
IC50 [4]: 5.73 µM

Nc1ncnc2c1ncn2[C@@H]1C[C@@H]2COP(=O)(S)O[C@H]3[C@@H](O)[C@H](n4cnc5c(=O)n6cc[nH]c6nc54)O[C@@H]3COP(=O)(S)OC[C@H]21 (single isomer, unassigned) [Example 5-4]
EC50 ([1]; 20 hours): > 100 µM
IC50 [2]: 34.5 µM
EC50 ([3]; 20 hours): > 100 µM
IC50 [4]: 0.11 µM

Nc1ncnc2c1ncn2[C@@H]1C[C@@H]2COP(=O)(S)O[C@@H]3[C@H](F)[C@@H](COP(=O)(S)OC[C@H]21)O[C@H]3n1cnc2c(=O)n3cc[nH]c3nc21 (single isomer, unassigned) [Example 6-1]
EC50 ([1]; 20 hours): > 100 µM
IC50 [2]: 6.31 µM
EC50 ([3]; 20 hours): > 100 µM
IC50 [4]: 0.18 µM

Nc1ncnc2c1ncn2[C@@H]1C[C@@H]2COP(=O)(S)O[C@@H]3[C@H](F)[C@@H](COP(=O)(S)OC[C@H]21)O[C@H]3n1cnc2c(=O)n3cc[nH]c3nc21 (single isomer, unassigned) [Example 6-2]
EC50 ([1]; 20 hours): 3.18 µM
IC50 [2]: 0.13 µM
EC50 ([3]; 20 hours): 6.99 µM
IC50 [4]: 0.01 µM

Nc1ncnc2c1ncn2[C@@H]1C[C@@H]2COP(=O)(S)O[C@@H]3[C@H](F)[C@@H](COP(=O)(S)OC[C@H]21)O[C@H]3n1cnc2c(=O)n3cc[nH]c3nc21 (single isomer, unassigned) [Example 6-3]
EC50 ([1]; 20 hours): > 100 µM
IC50 [2]: 9.24 µM
EC50 ([3]; 20 hours): > 100 µM
IC50 [4]: 0.22 µM

Nc1ncnc2c1ncn2[C@@H]1C[C@@H]2COP(=O)(S)O[C@@H]3[C@H](F)[C@@H](COP(=O)(S)OC[C@H]21)O[C@H]3n1cnc2c(=O)n3cc[nH]c3nc21 (single isomer, unassigned) [Example 6-4]
EC50 ([1]; 20 hours): > 100 µM
IC50 [2]: 19.4 µM
EC50 ([3]; 20 hours): > 100 µM
IC50 [4]: 0.63 µM

Nc1ncnc2c1ncn2[C@@H]1C[C@@H]2COP(=O)(S)O[C@@H]3[C@H](F)[C@@H](COP(=O)(S)OC[C@H]21)O[C@H]3n1cnc2c1ncn1ccnc21 (single isomer, unassigned) [Example 8-1]
EC50 ([1]; 20 hours): > 100 µM
IC50 [2]: 11.1 µM
EC50 ([3]; 20 hours): > 100 µM
IC50 [4]: 3.41 µM

Nc1ncnc2c1ncn2[C@@H]1C[C@@H]2COP(=O)(S)O[C@@H]3[C@H](F)[C@@H](COP(=O)(S)OC[C@H]21)O[C@H]3n1cnc2c1ncn1ccnc21 (single isomer, unassigned) [Example 8-2]
EC50 ([1]; 20 hours): > 100 µM
IC50 [2]: 3.43 µM
EC50 ([3]; 20 hours): > 100 µM
IC50 [4]: 0.51 µM

NC(=O)c1cc([C@@H]2C[C@@H]3COP(=O)(S)OC[C@@H]4[C@@H](COP(=O)(S)OC[C@H]32)C[C@H]4n2cnc3c(N)ncnc32)ccn1 (single isomer, unassigned) [Example 15-2]
EC50 ([1]; 20 hours): > 100 µM
IC50 [2]: > 100 µM
IC50 [4]: 73.5 µM

Nc1ncnc2c1ncn2[C@@H]1O[C@@H]2COP(=O)(S)OC[C@@H]3[C@@H](COP(=O)(S)O[C@H]2[C@H]1F)C[C@H]3n1cnc2c(=O)[nH]cnc21 (single isomer, unassigned) [Example 22-2]
EC50 ([1]; 20 hours): > 100 µM
EC50 ([3]; 20 hours): > 100 µM
IC50 [4]: 0.02 µM
